Results from publication PMC4074510 (Neuron, 2014).

Tests used:
SGK1 = target: T1, SGK1 (Homo sapiens, UniProt O00141); experiment: KINOMEscan competitive binding at […]; settings: read-out: % binding remaining at 10 μM
T1 sequence (O00141 1-431): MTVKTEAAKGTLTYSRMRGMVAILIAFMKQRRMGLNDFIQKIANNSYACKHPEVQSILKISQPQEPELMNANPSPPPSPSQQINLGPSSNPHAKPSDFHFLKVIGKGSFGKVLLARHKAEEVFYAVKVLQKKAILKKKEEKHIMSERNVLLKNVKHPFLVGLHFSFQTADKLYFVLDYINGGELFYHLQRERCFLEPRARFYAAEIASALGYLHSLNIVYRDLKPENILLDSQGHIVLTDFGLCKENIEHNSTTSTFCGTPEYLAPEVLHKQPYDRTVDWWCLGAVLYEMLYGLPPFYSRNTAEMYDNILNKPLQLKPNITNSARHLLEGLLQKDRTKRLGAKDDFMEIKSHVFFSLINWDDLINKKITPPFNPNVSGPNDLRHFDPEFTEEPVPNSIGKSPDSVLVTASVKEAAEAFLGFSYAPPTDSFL

[1] = target: T2, PIP4K2C (Phosphatidylinositol-5-phosphate 4-kinase, type II, gamma) (Homo sapiens, UniProt Q8TBX8); experiment: KINOMEscan competitive binding assay, dose-response
T2 sequence (Q8TBX8 2-421): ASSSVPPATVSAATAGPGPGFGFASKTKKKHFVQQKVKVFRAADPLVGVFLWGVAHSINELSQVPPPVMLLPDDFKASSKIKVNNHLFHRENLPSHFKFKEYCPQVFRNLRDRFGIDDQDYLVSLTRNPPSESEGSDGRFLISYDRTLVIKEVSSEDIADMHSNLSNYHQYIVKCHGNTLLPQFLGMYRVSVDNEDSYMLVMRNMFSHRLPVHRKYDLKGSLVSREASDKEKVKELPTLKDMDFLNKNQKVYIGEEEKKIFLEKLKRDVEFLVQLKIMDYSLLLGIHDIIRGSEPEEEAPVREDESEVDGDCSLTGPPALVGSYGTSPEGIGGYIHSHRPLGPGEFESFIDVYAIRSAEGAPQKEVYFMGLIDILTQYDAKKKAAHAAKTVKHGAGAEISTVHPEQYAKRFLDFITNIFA

PIP5K1C = PIP5K1C (Homo sapiens, UniProt O60331); experiment: microfluidic mobility shift assay with fluorescein-PI; format: biochemical
Chain of PIP5K1C (O60331 whole entry): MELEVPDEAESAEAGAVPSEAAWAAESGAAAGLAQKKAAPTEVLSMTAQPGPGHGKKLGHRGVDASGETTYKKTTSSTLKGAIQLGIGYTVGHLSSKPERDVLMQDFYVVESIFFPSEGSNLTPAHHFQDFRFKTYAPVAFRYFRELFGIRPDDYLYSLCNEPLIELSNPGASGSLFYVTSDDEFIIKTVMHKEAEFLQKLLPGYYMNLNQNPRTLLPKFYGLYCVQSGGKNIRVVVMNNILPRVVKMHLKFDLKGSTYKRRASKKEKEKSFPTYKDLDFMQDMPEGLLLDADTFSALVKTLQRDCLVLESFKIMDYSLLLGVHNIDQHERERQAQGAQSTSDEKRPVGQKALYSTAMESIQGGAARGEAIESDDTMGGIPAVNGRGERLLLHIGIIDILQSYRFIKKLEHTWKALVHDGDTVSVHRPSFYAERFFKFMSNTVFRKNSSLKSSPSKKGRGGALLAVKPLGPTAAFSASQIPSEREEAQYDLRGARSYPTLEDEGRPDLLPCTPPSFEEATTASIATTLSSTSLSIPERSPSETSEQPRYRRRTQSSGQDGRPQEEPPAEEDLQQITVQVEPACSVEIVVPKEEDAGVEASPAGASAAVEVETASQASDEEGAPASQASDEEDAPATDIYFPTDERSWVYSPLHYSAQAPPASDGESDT

remaining binding at 10 µM (SGK1): 8%
Kd [1]: < 200 nM
IC50 (PIP5K1C): ~41 nM
Compound: NC(=O)c1nc(Nc2ccccc2)sc1NC(=O)C1CCCCC1 [UNC3230, 5-(cyclohexanecarboxamido)-2-(phenylamino)thiazole-4-carboxamide]
